Reference: patent US20190209506A1, “METHODS OF REDUCING OR PREVENTING OXIDATION OF LDL OR LIPID MEMBRANES IN A SUBJECT IN NEED THEREOF” (Amarin Pharmaceuticals Ireland Limited, priority 2018, published 2019)
Where “and” joins values, the source holds several entries; their conditions need not be identical. Identical values can stand only once.

Tests used:
[1] = LOOH formation in membrane vesicles, fatty acid comparison (Example 16); assay type: biochemical; conditions: 5 μM; 0.1 μM copper sulfate, 48 hours
Procedure: Iodometric approaches were used to measure in vitro LOOH formation in membrane vesicles reconstituted as binary mixtures of cholesterol and dilinoleoyl phosphatidylcholine. Vesicles were prepared at a cholesterol-to-phospholipid mole ratio of 0.6:1 and subjected to autoxidation (e.g., lipid oxidation) at 37° C. Lipid oxidation was stimulated with 0.1 μM copper sulfate for 48 hours. All FAs were delivered at 5 and 10 μM.

[2] = Membrane cholesterol domain structural integrity, x-ray diffraction (Example 9); conditions: D/P mole ratio 1:30, C/P 1.5:1
Procedure: Multilamellar vesicles (MLVs) were prepared as binary mixtures that include palmitoyloleoylphosphatidylcholine (POPC) (1.0 mg total phospholipid per sample) and cholesterol at an elevated cholesterol-to-phospholipid (C/P) mole ratio of 1.5:1. […] Samples were shell-dried under nitrogen gas and placed under vacuum for 3 hours to remove residual solvent at room temperature. After desiccation, each sample was resuspended in saline buffer (0.5 mM HEPES, 154 mM NaCl, pH 7.3) to yield a final phospholipid concentration of 2.5 mg/mL. Lipid suspensions were then vortexed for 3 minutes at ambient temperature to form MLVs.
Briefly, a 100 μL aliquot of each MLV preparation (containing 250 μg MLV) was transferred to a Lucite® sedimentation cell fitted with an aluminum foil substrate designed to collect MLVs into a single membrane pellet upon centrifugation. Samples were then loaded into a Sorvall AH-629 swinging bucket rotor (DuPont Corp., Wilmington, Del.) and centrifuged at 35,000 g, 5° C., for 90 minutes.
After centrifugal orientation, sample supernatants were aspirated and aluminum foil substrates, each supporting a single membrane pellet, were removed from the sedimentation cells. Sample pellets were dried for 5-10 minutes at ambient conditions, mounted onto curved glass supports, and placed in hermetically-sealed, brass or glass containers (for immediate analysis or temporary storage, respectively). All x-ray diffraction experiments were conducted at 20° C., 74% relative humidity. The latter was established by exposing membrane samples to saturated solutions of […] (K2C4H4O6.½H2O) for at least 1 hour prior to experimental analysis.
Oriented membrane samples were aligned at grazing incidence with respect to a collimated, mono-chromatic CuKα x-ray beam (Kα1 and Kα2 unresolved; λ=1.54 Å) produced by a Rigaku Rotaflex RU-200, high-brilliance microfocus generator (Rigaku-MSC, The Woodlands, Tex.) as previously described (Mason et al., Biophys. J., vol. 55(4), pages 769-778 (1989)). The samples were initially subjected to x-ray diffraction analysis at least 12 hours after formation of the membrane pellets and retested for up to several days. Analytical x-rays were generated by electron bombardment of a rotating copper anode and are filtered through a thin nickel foil to provide monochromatic radiation (λ=1.54 Å). Collimation of the x-ray beam was achieved using a single Franks mirror. Diffraction data were collected on a one-dimensional, position-sensitive electron detector (Hecus X-ray Systems, Graz, Austria) at a sample-to-detector distance of 150 mm from the sample site.
The d-space for any given membrane multi bilayer is a measurement of the unit cell periodicity of the membrane lipid bilayer (e.g., the distance from the center of one lipid bilayer to the next including surface hydration), and is calculated from Bragg's Law, hλ=2d sin θ, where h is the diffraction order, λ is the wavelength of the x-ray radiation (1.54 Å), d is the membrane lipid bilayer unit cell periodicity, and θ is the Bragg angle equal to one-half the angle between the incident beam and scattered beam.
The presence of cholesterol domains in a given membrane sample results in the production of distinct Bragg (diffraction) peaks having singular periodicity values of 34 and 17 Å (typically referred to as first- and second-order cholesterol domain peaks). Under the specific temperature and relative humidity conditions established for these experiments, the second-order, 17 Å cholesterol domain peak was well-delineated from other, neighboring cholesterol and phospholipid diffraction peaks and was thus used to quantitate relative cholesterol domain peak intensity. Routines written in Origin 8.6 (OriginLab Corporation, Northampton, Mass.) were used to determine total peak area (associated with all diffraction peaks in a given pattern) against which the second-order cholesterol domain peak was normalized.

[3] = tested on: human sdLDL; experiment: Copper-induced sdLDL oxidation with fatty acids, TBARS/MDA (Example 14); assay type: biochemical; conditions: 1.0 μM; for inhibition of lipoprotein oxidation versus vehicle / effect on lipoprotein oxidation compared to vehicle: 40 minutes; for effect on oxidation: 60 minutes
Procedure: Venous blood was collected from healthy volunteers into vacutainer tubes. Plasma was separated by centrifugation at 3000 g for 25 min at 4° C. and adjusted to a density of 1.020 g/mL with KBr. sdLDL was isolated from the plasma of healthy volunteers by iodixanol density gradient ultracentrifugation and adjusted to a final apolipoprotein concentration of 2 mg/mL. An aliquot of sdLDL (50 μL) was incubated with either 10 μL vehicle (ethanol) or 10 μL FA (EPA, ETE, AA, EA, DHA, DPA, ALA, LA or SA) treatment stock solution (100 μM) for 30 min at 37° C. Oxidation was initiated with addition of initiator CuSO4 (10.0 μM). At certain time points (0, 40, 60, and 120 minutes), […] were removed from each subfraction and combined with 1.0 mL thiobarbituric acid (0.5%), 10 μL trichloroacetic acid (10%), 10 μL butylated hydroxytoluene (BHT; 35 mM in ethanol), and 10 μL ethylenediaminetetraacetic acid (EDTA; 5 mM). Sample aliquots were incubated at 100° C. for 30 min and then assayed for the formation of thiobarbituric acid reactive substances (TBARS), which have a molar absorptivity (ε) value of 1.56×105 M^−1 cm^−1 at 532 nm and are largely derived from the reaction of thiobarbituric acid with MDA, a reactive aldehyde produced by sdLDL oxidation. Sample TBARS concentrations were determined spectrophotometrically by measuring sample absorbances against a standard curve derived from the hydrolysis of 1,1,3,3-tetramethoxypropane.

[4] = tested on: human sdLDL; experiment: Copper-induced sdLDL oxidation, TBARS (Example 7); assay type: biochemical; conditions: 10 μM; 1 hour
Procedure: An experiment to study the antioxidant effect of EPA in LDL and small dense LDL (“sdLDL”) was performed. LDL and sdLDL were isolated from the plasma of healthy volunteers by iodixanol density gradient ultracentrifugation, and adjusted to a final apolipoprotein concentration of 2 mg/mL. […] Lipid oxidation was initiated with 10 μM CuSO4 and monitored by the colorimetric detection of thiobarbituric acid reactive substances (TBARS) for 1 hr. Vitamin E was also incubated with sample aliquots as a positive control.

[5] = tested on: human LDL; experiment: Copper-induced oxidation of unfractionated LDL, TBARS (Example 7); assay type: biochemical; conditions: 10 μM; 1 hour
Procedure: An experiment to study the antioxidant effect of EPA in LDL and small dense LDL (“sdLDL”) was performed. LDL and sdLDL were isolated from the plasma of healthy volunteers by iodixanol density gradient ultracentrifugation, and adjusted to a final apolipoprotein concentration of 2 mg/mL. […] Vitamin E was also incubated with sample aliquots as a positive control.

[6] = tested on: human sdLDL; experiment: Glucose-induced sdLDL oxidation, MDA/TBARS (Example 10); assay type: biochemical; conditions: 10 μM; glucose 200 mg/dL; 1 hr
Procedure: Vitamin E (α-tocopherol) purchased from Sigma-Aldrich was prepared in ethanol at 1.0 mM (ε=3.06×10^4M^−1 cm^−1 at 294 nm) prior to experimental use. Test compounds were further diluted in ethanol or aqueous buffer as needed. Phosphate Buffered Saline (PBS) purchased from Sigma-Aldrich was prepared in double distilled water at 10 mM (138 mM NaCl, 2.7 mM KCl, pH 7.4). Glucose prepared in PBS was added to test samples to achieve a final concentration of 11.0 mM (200 mg/dL).
LDL and sdLDL were isolated from the plasma of healthy volunteers by iodixanol density gradient ultracentrifugation and adjusted to a final apolipoprotein concentration of 10 mg/mL. […] Sample aliquots were incubated at 100° C. for 30 minutes and then assayed for the formation of thiobarbituric acid-reactive substances (TBARS), having a molar absorptivity (ε) value of 1.56×10^5 M^−1 cm^−1 at 532 nm and were derived principally from the reaction of thiobarbituric acid with malondialdehyde (MDA). Lipid oxidation was measured by the colorimetric detection of malondialdehyde (MDA), a marker of oxidative stress.

Row | Compound | % change Vs control (cholesterol domain peak intensity) [2] | Relative Cholesterol Domain Peak Intensity [2] | MDA Equivalents (Mean ± SD) ([3]; time point 0 min) | MDA Equivalents (Mean ± SD) ([3]; time point 40 min) | MDA Equivalents (Mean ± SD) ([3]; time point 60 min) | MDA Equivalents (Mean ± SD) ([3]; time point 120 min) | effect on lipoprotein oxidation compared to vehicle [3] | other results
1 | CC/C=C\C/C=C\C/C=C\CCCCCCCC(=O)O [ALA, α-linolenic acid] | −46.8% and −45.2 ± 11.3% | 23.2 ± 0.6 | 0.40 ± 0.06 µM | 8.91 ± 0.24 µM | 11.48 ± 0.18 µM | 12.94 ± 0.40 µM | – | reduction of LOOH levels compared to the vehicle [1]: 27%; inhibition of lipoprotein oxidation versus vehicle [3]: 16% and 15%; effect on oxidation [3]: failed to inhibit oxidation at 60 minutes
2 | CCCCCCCCCCCCCCCCCC(=O)O [SA, stearic acid] | – | – | 0.78 ± 0.01 µM | 10.60 ± 0.21 µM | 12.07 ± 0.23 µM | 12.33 ± 0.10 µM | did not completely inhibit oxidation compared to vehicle | –
3 | CCCCCCCCCCCCCCCCCCCC(=O)O [EA, eicosanoic acid] | – | – | 1.06 ± 0.09 µM | 11.27 ± 0.28 µM | 11.65 ± 0.65 µM | 13.22 ± 0.68 µM | did not completely inhibit oxidation compared to vehicle | –
4 | O=C(O)c1cccnc1 [niacin, nicotinic acid] | −35% | 27.5±12.2 | – | – | – | – | – | effect on sdLDL oxidation compared to vehicle-treated controls [4]: no significant effect on sdLDL oxidation; effect on unfractionated LDL oxidation [5]: no significant effect on unfractionated LDL oxidation; effect on glucose-induced sdLDL oxidation [6]: did not inhibit glucose-induced sdLDL oxidation; % change Vs control (cholesterol domain peak intensity) ([2]; listed as Niacin): −35.0 ± 30.8%; Relative Cholesterol Domain Peak Intensity ([2]; listed as Niacin): 27.5 ± 12.2
5 | CCCCC/C=C\C/C=C\C/C=C\C/C=C\CCCC(=O)O [AA, arachidonic acid] | −45.2% and −46.8 ± 15.2% | 22.5 ± 4.3 | 0.67 ± 0.06 µM | 10.89 ± 0.35 µM | 11.86 ± 0.46 µM | 12.88 ± 0.60 µM | failed to inhibit lipoprotein oxidation | –
6 | Cc1ccc(C)c(OCCCC(C)(C)C(=O)O)c1 [gemfibrozil] | 11% | 46.9±12.6 | – | – | – | – | – | effect on sdLDL oxidation compared to vehicle-treated controls [4]: no significant effect on sdLDL oxidation; effect on unfractionated LDL oxidation [5]: no significant effect on unfractionated LDL oxidation; effect on glucose-induced sdLDL oxidation [6]: did not inhibit glucose-induced sdLDL oxidation; % change Vs control (cholesterol domain peak intensity) ([2]; listed as Gemfib): −10.9 ± 43.3%; Relative Cholesterol Domain Peak Intensity ([2]; listed as Gemfib): 46.9 ± 12.6
7 | CCCCC/C=C\C/C=C\CCCCCCCC(=O)O [LA, linoleic acid] | – | – | 0.57 ± 0.12 µM | 10.74 ± 0.27 µM | 11.89 ± 0.30 µM | 12.55 ± 0.78 µM | did not completely lipoprotein oxidation | –
8 | CC1(C)[C@@H](O[C@H]2O[C@H](C(=O)O)[C@@H](O)[C@H](O)[C@H]2O[C@@H]2O[C@H](C(=O)O)[C@@H](O)[C@H](O)[C@H]2O)CC[C@]2(C)[C@H]3C(=O)C=C4[C@@H]5C[C@@](C)(C(=O)O)CC[C@]5(C)CC[C@@]4(C)[C@]3(C)CC[C@@H]12 [glycyrrhizin] | −54.9 ± 12.3% | 19.1±1.2 | – | – | – | – | – | reduction in cholesterol domain peaks compared to vehicle [2]: 54.9%; Relative Cholesterol Domain Peak Intensity ([2]; listed as Glyc): 19.1 ± 1.2
9 | CCCCCCCC/C=C\CCCCCCCC(=O)O [OA, oleic acid] | – | – | 0.78 ± 0.13 µM | 10.98 ± 0.36 µM | 12.00 ± 0.19 µM | 12.57 ± 0.38 µM | did not completely lipoprotein oxidation | –
10 | eicosatrienoic acid [ETE] | – | – | 0.40 ± 0.11 µM | 7.19 ± 0.43 µM | 10.90 ± 0.28 µM | 12.57 ± 0.15 µM | – | reduction of LOOH levels compared to the vehicle [1]: 36%; inhibition of lipoprotein oxidation versus vehicle [3]: 32%; effect on oxidation [3]: failed to inhibit oxidation at 60 minutes
